Our source for the Kd values is PubChem BioAssay AID608 (Sanford-Burnham Center for Chemical Genomics, 2007).

Activity calls are given as the source filed them. The rule behind the calls is not given here.

Broadly, the Kd is the equilibrium constant for the complex coming apart.

The test deals with Peptidyl-prolyl cis-trans isomerase FKBP1A (Homo sapiens) (UniProt P62942). In words: FKBP12 binders, biophysical, NMR detection (AID 608). Particulars: NMR binding, purified FKBP12.
Peptidyl-prolyl cis-trans isomerase FKBP1A (Homo sapiens), sequence (P62942 whole entry, looked up): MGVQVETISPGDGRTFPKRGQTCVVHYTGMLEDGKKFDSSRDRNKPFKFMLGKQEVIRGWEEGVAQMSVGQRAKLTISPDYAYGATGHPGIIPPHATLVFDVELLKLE
On to `NC(=O)C12CC3CC(C1)C(=O)C(C3)C2`, for which the Kd is > 4 mM (inactive). For `Cc1nn(C)c(C)c1NC(=S)NC1CCCC1`, the Kd was > 4 mM (inactive). For `CN1CCC[C@H]1c1cccnc1`, the Kd is > 4 mM (inactive). Consider `COc1ccc(NC(=O)C(N)=O)cc1Cl`, for which the Kd is > 4 mM (inactive). `Cc1ccc(C(C)C)cc2c(C)ccc1-2`: the Kd is > 4 mM (inactive). To `c1ccc(-c2nnc(CNCc3ccco3)o2)cc1` belongs > 4 mM (inactive); to `Cc1cc(C(=O)N2CCN(c3ccccn3)CC2)c(C)o1`, > 4 mM (inactive); to `Nc1nncn1C(=O)c1c(Cl)cccc1Cl`, > 4 mM (inactive).

As for `CC(CC(O)C1OC1(C)C)[C@@H]1CCC2(C)C3=CCC4C(C)(C)C(=O)CCC4(C)C3CC[C@@]12C` (stereo partly specified), the Kd is > 4 mM (inactive). In the case of `NC1=NC(=O)CC(C(=O)Nc2ccccc2)S1` (stereo unspecified), the Kd is > 4 mM (inactive). Turning to `CCOC(=O)c1c(C)cc(O)c(C=O)c1O`, the Kd was > 4 mM (inactive). The value for `Cc1ccc(SCC(=O)N2CC(C)OC(C)C2)cc1` (stereo unspecified) was “inactive”; that for `O=C(COc1ccc(S(=O)(=O)Nc2cccc(C(F)(F)F)c2)cc1)N1CCOCC1` was “inactive”. As to `COC(=O)c1cccs1`, the Kd is > 4 mM (inactive).

In the case of `COc1cccc(-c2nn(-c3ccccc3)cc2CO)c1`, the Kd is > 4 mM (inactive). With `CC1(C)CN=C(Nc2nc3ccccc3s2)S1`, the Kd is > 4 mM (inactive). To `O=C(NCCO)c1cc2ccccc2c(=O)s1` belongs > 4 mM (inactive); to `O=C(CN1CCOCC1)Nc1cccc(Br)c1`, > 4 mM (inactive). Consider `CC(C(N)=O)N1C(=O)c2ccccc2C1=O` (stereo unspecified), for which the Kd was > 4 mM (inactive).

In the case of `NNC(=O)c1ccccc1-n1cccc1`, the Kd was > 4 mM (inactive). As to `CC(C)NS(=O)(=O)c1ccc(OCC(=O)N2CCOCC2)cc1`, the Kd entry was “inactive”. As for `Cc1nnc(SCc2ccccc2)[nH]c1=O`, the Kd is > 4 mM (inactive). The value for `Cc1nnc(NCCCO)[nH]c1=O` was > 4 mM (inactive).

Consider `NC(=O)CSc1nnnn1-c1ccccc1`, for which the Kd was > 4 mM (inactive). The value for `CC1(C)N([O-])c2cc([N+](=O)[O-])ccc2[N+]1=O` was > 4 mM (inactive); that for `N[C@@H](C(=O)O)[C@@H](O)[C@H](O)[C@H](O)CO` was > 4 mM (inactive). The value for `COC(=O)c1cc2cc(N)ccc2s1` was > 4 mM (inactive); that for `COc1c(-c2coc3cc4c(cc3c2=O)CC(OC(C)=O)C(C)(C)O4)ccc2c1C=CC(C)(C)O2` (stereo unspecified) was > 4 mM (inactive); that for `Cc1nc2ccccc2c(=O)n1N1C(=O)CCCC1=O` was > 4 mM (inactive).

`O=C(/C=C(\O)c1ccccc1)c1ccccc1O`: the Kd was > 4 mM (inactive). The value for `COc1cc2c(cc1O)CCNC2C` (stereo unspecified) was > 4 mM (inactive); that for `CN1CCN(C(=S)c2ccc(N(C)C)cc2)CC1` was > 4 mM (inactive); that for `O=c1[nH]c(O)c(C=NC2CC2)c(=O)[nH]1` was > 4 mM (inactive). Consider `Cn1[nH]c2nc3[nH]n(C)c(=O)c3c(-c3ccccc3)c2c1=O`, for which the Kd was > 4 mM (inactive).

Consider `OCCN1CCN(C(=S)c2ccc(Cl)cc2)CC1`, for which the Kd is > 4 mM (inactive). For `CC(=O)N1CC2(C)CN(C(C)=O)CC(C)(C1)C2O` (stereo unspecified), the Kd was > 4 mM (inactive). Regarding `CNC(=O)CC1Sc2ccccc2NC1=O` (stereo unspecified), the Kd is > 4 mM (inactive). With `Cc1oc(-c2ccccc2)nc1CCO`, the Kd was > 4 mM (inactive). The value for `O=C(Cc1c(F)cccc1Cl)Nc1cccnc1` was > 4 mM (inactive). Consider `O=C1NC(=S)N/C1=C\c1cccnc1`, for which the Kd is > 4 mM (inactive). Regarding `CN(c1ccccc1C(=O)N1CCOCC1)S(C)(=O)=O`, the Kd is > 4 mM (inactive). Regarding `Cn1ncc(CO)c1-c1ccccc1`, the Kd is > 4 mM (inactive). As for `Nc1cc(=O)[nH]c(SCC(=O)NCc2ccccc2)n1`, the Kd is > 4 mM (inactive). As for `Nc1ncnc(NC2CCS(=O)(=O)C2)c1[N+](=O)[O-]` (stereo unspecified), the Kd was > 4 mM (inactive). For `Cc1cc(N)on1`, the Kd was > 4 mM (inactive).

For `N#Cc1cn(CC(=O)N2CCCC2)c2ccccc12`, the Kd was > 4 mM (inactive). Take `COc1ccccc1NC(=O)c1ccc(C)s1`: the Kd is > 4 mM (inactive).

As for `COc1cc(C)c(S(=O)(=O)N2CCN(C)CC2)cc1C`, the Kd was > 4 mM (inactive). As for `NC(=O)c1ccc(NC(=O)C2CC2)cc1`, the Kd is > 4 mM (inactive).

With `Cc1c(N=CN(C)C)c(=O)n(-c2ccccc2)n1C`, the Kd was > 4 mM (inactive). Consider `O=C1CSC2=NCCCN12`, for which the Kd is > 4 mM (inactive). Take `Cc1[nH]c2ccccc2c1Cc1n[nH]c(=S)n1C`: the Kd is > 4 mM (inactive). For `CN(C)/C=N/S(=O)(=O)c1ccccc1`, the Kd was > 4 mM (inactive).

`O=c1ccc2c([nH]1)CCCC2`: the Kd is > 4 mM (inactive). To `COC(=O)CCC(C)C1CCC2C3CCC4C[C@H](O)CC[C@]4(C)C3C[C@H](O)[C@]12C` (stereo partly specified) belongs > 4 mM (inactive); to `COc1ccc2cc3[n+](cc2c1OC)CCc1cc2c(cc1-3)OCO2`, > 4 mM (inactive); to `O=C(O)CC[N+](=O)[O-]`, > 4 mM (inactive). For `COc1ccccc1NC(=O)NC(N)=O`, the Kd is > 4 mM (inactive). Take `Cn1nccc1N`: the Kd is > 4 mM (inactive). To `Cc1cn(C(=O)CN2C(=O)c3ccccc3C2=O)c(C)n1` belongs > 4 mM (inactive); to `OC[C@H]1O[C@@](CO)(O[C@@H]2O[C@H](CO)[C@@H](O)[C@H](O)[C@H]2O)[C@@H](O[C@@H]2O[C@H](CO)[C@@H](O)[C@H](O)[C@H]2O)[C@@H]1O`, > 4 mM (inactive). In the case of `Cc1nc2ccccc2c(=O)n1CCCO`, the Kd is > 4 mM (inactive). The value for `O=c1c(O)c(-c2ccccc2)oc2cc(O)ccc12` was > 4 mM (inactive); that for `CC(C)c1nnc(N)s1` was > 4 mM (inactive); that for `C[N+](C)(C)CC(O)CC(=O)O` (stereo unspecified) was > 4 mM (inactive).

For the molecule `C=CCCCCCCCCCCCc1ccco1`, the Kd is > 4 mM (inactive). The value for `N#CCSc1nnc2ccc3ccccc3n12` was > 4 mM (inactive). In the case of `Cn1c(=O)c2c(ncn2CCN)n(C)c1=O`, the Kd was > 4 mM (inactive). On to `CCSc1nc2ccccc2[nH]1`, for which the Kd was > 4 mM (inactive). With `C=CCc1ccc(OC(=O)c2ccccc2)c(OC)c1`, the Kd is > 4 mM (inactive). Take `N#CCSc1nc2ccccc2c(=O)n1-c1ccccc1`: the Kd was > 4 mM (inactive).

With `Cn1c(O)c(/C=C2\C=CC=N2)c(=O)[nH]c1=O`, the Kd is > 4 mM (inactive). Take `C/C(N)=C/C(=O)N1CCCCC1`: the Kd is > 4 mM (inactive). Consider `Cc1c(C(=O)OC(C)C)[nH]c2c1C(=O)CCC2`, for which the Kd is > 4 mM (inactive).

Take `CCOC(=O)C1C(=O)C2CCN1CC2` (stereo unspecified): the Kd is > 4 mM (inactive). On to `O=C1NC(=O)C(Cc2cccs2)C(=O)N1`, for which the Kd is > 4 mM (inactive). For `FC(F)(F)c1nnc2ccc(N3CCOCC3)nn12`, the Kd was > 4 mM (inactive). Consider `Oc1ccc(C2SCCS2)cc1`, for which the Kd was > 4 mM (inactive). For `O=c1n(-c2ccccc2)c(=O)n2n1CCCC2`, the Kd was > 4 mM (inactive). In the case of `CCc1c(C)[nH]c(=S)c(C(N)=O)c1C`, the Kd was > 4 mM (inactive). Turning to `COc1ccccc1-c1noc(-c2ccncc2)n1`, the Kd is > 4 mM (inactive). For the molecule `Nc1ccc(-n2cncn2)cc1`, the Kd is > 4 mM (inactive).

Consider `CCOc1ccc(Cl)cc1S(=O)(=O)N1CCCC1`, for which the Kd was > 4 mM (inactive).

On to `Cc1ccc(-n2cnnn2)c2cccnc12`, for which the Kd is > 4 mM (inactive). The value for `CCOC(=O)C1=C(O)CCN(C)C1` was > 4 mM (inactive); that for `Nc1ccc2c(c1)OCCO2` was > 4 mM (inactive); that for `O=C1c2ccccc2-c2ncnc3cccc1c23` was > 4 mM (inactive). Consider `CC(=O)c1ccc(-n2ccnc2)cc1`, for which the Kd was > 4 mM (inactive). As for `O=C(NCc1cccs1)c1nn2cccnc2c1Cl`, the Kd is > 4 mM (inactive). With `COc1cc2nc[nH]c(=O)c2cc1OC`, the Kd is > 4 mM (inactive). For `CC(=O)N(c1ccccc1)C1C=CS(=O)(=O)C1` (stereo unspecified), the Kd is > 4 mM (inactive). For `C=C1C2CC[C@@]3(C)[C@H](c4ccoc4)OC(=O)C[C@]13O[C@H]1C[C@H](OC(C)=O)C(C)(C)[C@H](CC(=O)OC)[C@@]21C`, the Kd is > 4 mM (inactive). For `NC(=O)c1ccccc1NC(=O)C1CCCO1` (stereo unspecified), the Kd is > 4 mM (inactive). Take `OC1COCc2nc3ccccc3n2C1` (stereo unspecified): the Kd is > 4 mM (inactive). Turning to `Cc1cc(C)cc(C(=O)N2CCC(C(N)=O)CC2)c1`, the Kd was > 4 mM (inactive). With `CCOc1nc(C)ccc1-c1noc(-c2ccncc2)n1`, the Kd was > 4 mM (inactive). With `Cc1ccc(/C=C2/NC(=S)NC2=O)s1`, the Kd is > 4 mM (inactive). To `O=C1C(=O)N(CNc2ncccn2)c2ccccc21` belongs > 4 mM (inactive); to `NCc1ccc(-c2csnn2)cc1`, > 4 mM (inactive); to `NC(=O)c1ccccc1N1CCCCC1`, > 4 mM (inactive).

On to `Cc1cc(C)c(NC(=O)CN2CCC(O)CC2)c(C)c1`, for which the Kd is > 4 mM (inactive). With `CN(C)S(=O)(=O)N1CCc2ccccc21`, the Kd is > 4 mM (inactive). On to `O=S1(=O)CCC(NCc2ccccc2)C1` (stereo unspecified), for which the Kd was > 4 mM (inactive).

On to `OCc1cc(-c2cccs2)on1`, for which the Kd was > 4 mM (inactive). Regarding `Cc1ccccc1-n1c(-c2ccncc2)n[nH]c1=S`, the Kd is > 4 mM (inactive). As for `CN1CCN(Cc2cccnc2)CC1`, the Kd was > 4 mM (inactive).
